Experimental data reported in patent US20250235450A1, “COMBINATION THERAPIES COMPRISING APREMILAST AND TYK2 INHIBITORS” (Celgene Corporation, priority 2019, published 2025).
Entries after “also recorded” stand apart in the source; their conditions may differ.

Assays:
[1] = test system: moderate to severe plaque psoriasis; details: cited from earlier work
[2] = test system: LPS stimulated PBMCs; experiment: Cytokine production in LPS stimulated PBMCs; format: cell-based, human; design: key to IL-2 / IFNα2 / IFSNβ / IL-4 / IL-5 / IL-6 / IL-10 / IL-13 / IL-15 / IL-17 / IL-22 / IL-1β / IL-1ra / IL-23 / IL-12p40 / IL-12p70 / TNF-α / IFNγ / MCP-1 / GM-CSF / G-CSF: ↑: Induced; —: No change; ↓: Reduced; details: for effect on IFN-γ production / effect on IL-12p40 production / effect on IL-12p70 production / effect on IL-23 production / effect on MCP-1 production / effect on TNF-α production: vs DMSO control
Method: Peripheral blood mononuclear cells (PBMCs) isolation: Whole blood was received through the Celgene Donor program after informed consent and donor deidentification. All volunteers were healthy and were not on any medications for at least 72 hours prior to the blood draw. Blood was collected in Sodium Heparin tubes and were used within 2 hours of the blood draw for PBMCs isolation. Before PBMCs isolation, whole blood was diluted 1:1 with PBS solution containing 2% FBS (2% FBS-PBS). 13 ml of Ficoll-Paque solution was loaded in the SepMate® tube and 25 ml of diluted blood was loaded on top of the Ficoll-Paque. Centrifugation at 1200 g for 15 minutes with the brake on for cell separation, after which isolated PBMCs were transferred into a new tube. PBMCs were washed with 2% FBS-PBS and centrifuged at 800 g 10 minutes. Pellets were resuspended in 2% FBS-PBS and filtered through a 40 μm cell strainer to obtain single-cell suspension. 3 ml of RBC lysis buffer were used to eliminate red blood cells in the isolated population. Isolated PBMCs were washed with 2% FBS-PBS and were resuspended in RPMI growth medium containing 10% FBS and antibiotics.
For Example 6-11, PBMCs from 9 healthy donors were isolated and LPS-stimulated ex-vivo for IL-23, IL-12p40, IL-12p70, TNF-α, IFN-γ and MCP-1 cytokine analysis. PBMCs were plated in 96 well plate at a density of 200,000 cells per well in 200 μl of RPMI growth medium containing 10% FBS followed by treatment with DMSO and compounds. Each well received the same amount of DMSO, which is 0.3% v/v as final concentration. Series dilutions of compound treatment was performed according to Table 4 shown below. After two hours of compound treatment, LPS 100 ng/ml as final concentration was used as the stimulator. PBMCs were then incubated in a 37° C./5% CO2 incubator for 16 hours.
After 16 hours incubation, supernatants were collected into new 96-well polypropylene plates and centrifuged at 4000 rpm for 10 minutes to get rid of cell debris. Cytokine production was measured by Luminex Bio-Plex Multiplex Immunoassay (Bio-Rad) according to the manufacturer's procedures. To ensure that supernatant level was within the range of the standard cytokine for the assay, samples were diluted 5 fold for IL-12p40 and 27-plex assays, and used neat for IL-23 assay.
Data processing for PBMCs assays was done using Bio-plex manager, and raw data was exported to Excel template for the cytokine analysis. Data was plotted using GraphPad Prism 7.0 (GraphPad Software, Inc., La Jolla, CA) and expressed as % of DMSO control. Statistical analysis was performed using One Way ANOVA and Tukey's multiple comparisons test.
To evaluate the combinatory effect of apremilast and BMS-986165, data from the two independent treatments were analyzed by comparing the combinatory response against the theoretical additive response of the two agents. The expected additive effect of two agents (A and B) was calculated using the fractional product method: (fu)A,B=(fu)A×(fu)B; where fu=fraction unaffected by treatment.

CCOc1cc([C@@H](CS(C)(=O)=O)N2C(=O)c3cccc(NC(C)=O)c3C2=O)ccc1OC [Apremilast, N-[2-[(1S)-1-(3-ethoxy-4-methoxyphenyl)-2-(methylsulfonyl)ethyl]-2,3-dihydro-1,3-dioxo-1H-isoindol-4-yl]acetamide]
reduction in plaque psoriasis ([1]; achievable in some patients, just over 4 months of treatment): 75% | G-CSF ([2]; LPS stimulated PBMCs): ↑ | GM-CSF ([2]; LPS stimulated PBMCs): ↓ | IFNα2 ([2]; LPS stimulated PBMCs): — | IFNγ ([2]; LPS stimulated PBMCs): ↓ | IFSNβ ([2]; LPS stimulated PBMCs): — | IL-1ra ([2]; LPS stimulated PBMCs): — | IL-1β ([2]; LPS stimulated PBMCs): — | IL-2 ([2]; LPS stimulated PBMCs): ↓ | IL-4 ([2]; LPS stimulated PBMCs): — | IL-5 ([2]; LPS stimulated PBMCs): — | IL-6 ([2]; LPS stimulated PBMCs): — | IL-10 ([2]; LPS stimulated PBMCs): ↑ | IL-12p40 ([2]; LPS stimulated PBMCs): ↓ | IL-12p70 ([2]; LPS stimulated PBMCs): ↓ | IL-13 ([2]; LPS stimulated PBMCs): — | IL-15 ([2]; LPS stimulated PBMCs): — | IL-17 ([2]; LPS stimulated PBMCs): — | IL-22 ([2]; LPS stimulated PBMCs): — | IL-23 ([2]; LPS stimulated PBMCs): ↓ | MCP-1 ([2]; LPS stimulated PBMCs): ↓ | TNF-α ([2]; LPS stimulated PBMCs): ↓ | effect on IL-12 ([2]; LPS stimulated PBMCs): inhibited | effect on IFN-γ production ([2]; LPS stimulated PBMCs): decreased; also recorded: reduced | effect on IL-12p40 production ([2]; LPS stimulated PBMCs): decreased | effect on IL-12p70 production ([2]; LPS stimulated PBMCs): decreased | effect on IL-23 production ([2]; LPS stimulated PBMCs): decreased; also recorded: inhibited | effect on MCP-1 production ([2]; LPS stimulated PBMCs): decreased; also recorded: reduced | effect on TNF-α production ([2]; LPS stimulated PBMCs): decreased; also recorded: inhibited

[2H]C([2H])([2H])NC(=O)c1nnc(NC(=O)C2CC2)cc1Nc1cccc(-c2ncn(C)n2)c1OC [BMS-986165, 6-(cyclopropanecarboxamido)-4-((2-methoxy-3-(1-methyl-1H-1,2,4-triazol-3-yl)phenyl)amino)-N-(methyl-d3)pyridazine-3-carboxamide]
phase 2 clinical trial outcome ([1]; subjects with moderate to severe plaque psoriasis): positive results | increase of IL-23 compared to DMSO group ([2]; 0.2 μM-2 μM BMS-986165): 20 fold | G-CSF ([2]; LPS stimulated PBMCs): ↑ | GM-CSF ([2]; LPS stimulated PBMCs): ↑ | IFNα2 ([2]; LPS stimulated PBMCs): — | IFNγ ([2]; LPS stimulated PBMCs): ↓ | IFSNβ ([2]; LPS stimulated PBMCs): — | IL-1ra ([2]; LPS stimulated PBMCs): ↓ | IL-1β ([2]; LPS stimulated PBMCs): — | IL-2 ([2]; LPS stimulated PBMCs): — | IL-4 ([2]; LPS stimulated PBMCs): — | IL-5 ([2]; LPS stimulated PBMCs): — | IL-6 ([2]; LPS stimulated PBMCs): — | IL-10 ([2]; LPS stimulated PBMCs): — | IL-12p40 ([2]; LPS stimulated PBMCs): ↑ | IL-12p70 ([2]; LPS stimulated PBMCs): ↑ | IL-13 ([2]; LPS stimulated PBMCs): ↑ | IL-15 ([2]; LPS stimulated PBMCs): — | IL-17 ([2]; LPS stimulated PBMCs): — | IL-22 ([2]; LPS stimulated PBMCs): — | IL-23 ([2]; LPS stimulated PBMCs): ↑↑ | MCP-1 ([2]; LPS stimulated PBMCs): ↓ | TNF-α ([2]; LPS stimulated PBMCs): ↑ | effect on IL-12 ([2]; LPS stimulated PBMCs): increased | increase of TNF-α ([2]; LPS stimulated PBMCs, BMS-986165 alone): 1.2-1.5 fold | effect on IFN-γ production ([2]; LPS stimulated PBMCs): decreased; also recorded: reduced | effect on IL-12p40 production ([2]; LPS stimulated PBMCs): increased; also recorded: induced | effect on IL-12p70 production ([2]; LPS stimulated PBMCs): increased; also recorded: induced | effect on IL-23 production ([2]; LPS stimulated PBMCs): induced; also recorded: increased | effect on MCP-1 production ([2]; LPS stimulated PBMCs): decreased; also recorded: reduced | effect on TNF-α production ([2]; LPS stimulated PBMCs): induced; also recorded: increased
